Test results as given in patent US20230322771A1, “HETEROCYCLIC GLP-1 AGONISTS” (Gasherbrum Bio, Inc., priority 2020, published 2023).

Target: GLP-1 Receptor (Homo sapiens, UniProt P43220)
Assay: GLP-1R agonist cAMP stimulation assay (HEK293/GLP1R/CRE-LUC cells, HTRF cAMP dynamic 2 kit)
Type: cell-based
Conditions: HEK293/CRE-Luc cell line (HDB) stably expressing GLP-1 Receptor; 30 min incubation at 37° C.; read-out: GLP1R cAMP Stimulation DR: EC50 (nM) [Species: Human, Assay Cell Line: HDB]
Procedure: Activation of GLP-1 receptor is known to stimulate cyclic AMP (cAMP) production in cells which indicates primary coupling to the Gαs subunit of the G protein heterotrimeric complex.
To optimize functional activity directed toward Gαs coupling, a HEK293/CRE-Luc cell line developed by HDB stably expressing the GLP-1 Receptor was used. 200× concentration of compound working solutions were prepared (Agilent Technologies Bravo) with ½ log serial dilution in 384-well Echo LDV plate (Labcyte, Cat #LP-0200). 50 nL/well 200× concentration of compound working solutions were moved to 384-well white low volume plate (Greiner, Cat #784075) using Labcyte ECHO550. 1×10^5 cells/mL HEK293/GLP1R/CRE-LUC(HD Biosciences) cell suspensions prepared with assay buffer[DPBS containing 0.5 mM IBMX(Sigma, Cat #15879) and 0.1% BSA(GENVIEW, Cat #FA016-100 g)], 10 uL cell suspensions were added to each well of previous generated assay plate which already contains 50 nl compound at 200× concentration using ThermoFisher Multidrop Combi(1000 cells/well). Seal the plate and incubate at 37° C. with 5% CO2 for 30 min.
After incubation the cAMP assay signal was generated using cAMP dynamic 2 Kit (Cisbio). 5 μL cAMP-d2 working solution was added to each well, followed with 5 μL Anti-cAMP antibody-cryptate working solution added to each well using ThermoFisher Multidrop Combi. Incubate at room temperature for 1 hour protected from light. Read the fluorescence at 665 and 615 nm with Reader PerkinElmer EnVision.
% Activity=100%×(mean RLU of test sample−mean RLU of vehicle control)/(mean RLU of MAX control−mean RLU of vehicle control))

Sequence of GLP-1 Receptor (P43220 24-463): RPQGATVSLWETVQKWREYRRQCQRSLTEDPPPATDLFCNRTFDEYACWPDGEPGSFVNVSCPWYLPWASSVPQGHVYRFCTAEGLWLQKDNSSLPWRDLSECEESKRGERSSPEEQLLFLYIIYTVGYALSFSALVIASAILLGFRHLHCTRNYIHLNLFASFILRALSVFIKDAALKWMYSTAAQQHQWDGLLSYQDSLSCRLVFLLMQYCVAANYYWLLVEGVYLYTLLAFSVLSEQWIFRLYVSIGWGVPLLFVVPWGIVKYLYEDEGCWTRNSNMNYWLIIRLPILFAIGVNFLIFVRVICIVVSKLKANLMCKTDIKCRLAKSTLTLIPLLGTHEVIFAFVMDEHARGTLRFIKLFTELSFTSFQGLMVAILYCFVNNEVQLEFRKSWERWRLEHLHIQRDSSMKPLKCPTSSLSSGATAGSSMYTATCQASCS

EC50: 0.55 nM
SMILES: CCS(=O)(=O)C(C)c1ccc(-n2ccn(-c3c4c(nn3-c3cc(C)c(F)c(C)c3)CCN(C(=O)c3cc5cc(C6CCOCC6)ccc5n3C3(c5noc(=O)[nH]5)CC3)[C@H]4C)c2=O)c(F)c1 (stereo partly drawn) [Compound 113a, 3-(1-(2-((4S)-3-(3-(4-(1-(ethylsulfonyl)ethyl)-2-fluorophenyl)-2-oxo-2,3-dihydro-1H-imidazol-1-yl)-2-(4-fluoro-3,5-dimethylphenyl)-4-methyl-4,5,6,7-tetrahydro-2H-pyrazolo[4,3-c]pyridine-5-carbonyl)-5-(tetrahydro-2H-pyran-4-yl)-1H-indol-1-yl)cyclopropyl)-1,2,4-oxadiazol-5(4H)-one]
